Measured values published in PubChem BioAssay (NCI).
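Where inhibition never reached the appropriate level, the endpoint shown equals the highest concentration tested. Otherwise, values were interpolated linearly from a five-concentration, 48-hour dose response in 96-well plates. Definition used: TGI = concentration required for complete inhibition of growth.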

Experiments:
Test in all cases: NCI-60 cell line screen, 48 h
[1] = tested on: ACHN renal
[2] = tested on: NCI-H23 lung
[3] = tested on: EKVX NSCLC
[4] = tested on: PC-3 prostate
[5] = tested on: HS 578T breast
[6] = tested on: HOP-92 NSCLC
[7] = tested on: K-562 leukemia
[8] = tested on: OVCAR-5 ovarian
[9] = tested on: MOLT-4 leukemia
[10] = tested on: HOP-62 NSCLC
[11] = tested on: LOX IMVI melanoma
[12] = tested on: DU-145 prostate
[13] = tested on: IGROV1 ovarian
[14] = tested on: NCI/ADR-RES ovarian
[15] = tested on: SF-295 CNS
[16] = tested on: SR leukemia
[17] = tested on: M14 melanoma
[18] = tested on: NCI-H522 lung
[19] = tested on: SK-OV-3 ovarian
[20] = tested on: HCT-116 colon
[21] = tested on: RPMI-8226 leukemia
[22] = tested on: SW-620 colon
[23] = tested on: SK-MEL-28 melanoma
[24] = tested on: MDA-MB-435
[25] = tested on: TK-10 renal
[26] = tested on: HCT-15 colon
[27] = tested on: SF-268 CNS
[28] = tested on: UACC-257 melanoma
[29] = tested on: CCRF-CEM leukemia
[30] = tested on: NCI-H226 lung
[31] = tested on: MDA-N
[32] = tested on: OVCAR-8 ovarian
[33] = tested on: SF-539 CNS
[34] = tested on: MCF7 breast
[35] = tested on: HT29 colon
[36] = tested on: 786-0 renal
[37] = tested on: KM12 colon
[38] = tested on: HL-60(TB) leukemia
[39] = tested on: OVCAR-4 ovarian
[40] = tested on: SK-MEL-5 melanoma
[41] = tested on: NCI-H460 lung
[42] = tested on: HCC-2998 colon
[43] = tested on: T-47D breast
[44] = tested on: CAKI-1 renal
[45] = tested on: MDA-MB-231 breast
[46] = tested on: OVCAR-3 ovarian
[47] = tested on: RXF 393 renal
[48] = tested on: U251 CNS
[49] = tested on: UO-31 renal
[50] = tested on: A498 renal
[51] = tested on: SK-MEL-2 melanoma
[52] = tested on: SN12C renal
[53] = tested on: A549 NSCLC
[54] = tested on: UACC-62 melanoma
[55] = tested on: MALME-3M melanoma
[56] = tested on: BT-549 breast
[57] = tested on: SNB-19 CNS
[58] = tested on: COLO 205 colon
[59] = tested on: SNB-75 CNS

`O=C1CSC(c2ccccc2O)N1c1ccc2c(c1)Oc1c(Cl)c3c(c(Cl)c1=N2)Oc1cc(N2C(=O)CSC2c2ccccc2O)ccc1N=3` (stereo not drawn) was tested, and the TGI [1] was 55.1 µM, the TGI [2] was > 100 µM and the TGI [3] was > 100 µM. For the same compound, the TGI [4] was > 100 µM, the TGI [5] was > 100 µM and the TGI [6] was 39.9 µM. For the same compound, the TGI [7] was > 100 µM, the TGI [8] was > 100 µM and the TGI [9] was 46.4 µM. The TGI [10] was > 100 µM, the TGI [11] was > 100 µM and the TGI [12] was > 100 µM. The TGI [13] was > 100 µM, the TGI [14] was > 100 µM and the TGI [15] was > 100 µM. For the same compound, the TGI [16] was > 100 µM, the TGI [17] was > 100 µM and the TGI [18] was 52 µM. The TGI [19] was 71.3 µM, the TGI [20] was > 100 µM and the TGI [21] was > 100 µM. For the same compound, the TGI [22] was > 100 µM, the TGI [23] was > 100 µM and the TGI [24] was > 100 µM. The TGI [25] was > 100 µM, the TGI [26] was > 100 µM and the TGI [27] was > 100 µM. For the same compound, the TGI [28] was > 100 µM, the TGI [29] was > 100 µM and the TGI [30] was > 100 µM. For the same compound, the TGI [31] was > 100 µM, the TGI [32] was > 100 µM and the TGI [33] was > 100 µM. For the same compound, the TGI [34] was > 100 µM, the TGI [35] was > 100 µM and the TGI [36] was > 100 µM. The TGI [37] was > 100 µM, the TGI [38] was > 100 µM and the TGI [39] was > 100 µM. The TGI [40] was > 100 µM, the TGI [41] was > 100 µM and the TGI [42] was > 100 µM. For the same compound, the TGI [43] was > 100 µM, the TGI [44] was > 100 µM and the TGI [45] was > 100 µM. The TGI [46] was > 100 µM, the TGI [47] was 44.5 µM and the TGI [48] was 65 µM. For the same compound, the TGI [49] was > 100 µM, the TGI [50] was > 100 µM and the TGI [51] was > 100 µM.
With `N#Cc1c(Cl)cc(C#N)n2c1nc1ccccc12` the TGI [52] was 38.6 µM, the TGI [1] was 28.7 µM and the TGI [2] was 26.8 µM. The TGI [3] was 39.5 µM, the TGI [4] was 32.6 µM and the TGI [5] was 83.7 µM. It also gave a TGI [6] of 16.8 µM, a TGI [53] of 22.2 µM and a TGI [7] of 21.1 µM. For the same compound, the TGI [8] was 30.3 µM, the TGI [9] was 5.4 µM and the TGI [10] was 44.1 µM. It also gave a TGI [11] of 7.02 µM, a TGI [12] of 41.3 µM and a TGI [13] of 28.3 µM. For the same compound, the TGI [54] was 38.4 µM, the TGI [14] was 42.4 µM and the TGI [15] was 30.1 µM. For the same compound, the TGI [17] was 22.2 µM, the TGI [18] was 5.69 µM and the TGI [19] was 51.3 µM. It also gave a TGI [20] of 12.8 µM, a TGI [55] of 18.5 µM and a TGI [21] of 17.2 µM. It also gave a TGI [22] of 9.1 µM, a TGI [23] of 26.5 µM and a TGI [24] of 26.2 µM. The TGI [25] was 26.4 µM, the TGI [26] was 21.2 µM and the TGI [27] was 13.6 µM. For the same compound, the TGI [28] was 29.7 µM, the TGI [30] was 71 µM and the TGI [31] was 22.7 µM. For the same compound, the TGI [32] was 21 µM, the TGI [33] was 19.1 µM and the TGI [34] was 24.9 µM. The TGI [35] was 21.4 µM, the TGI [56] was 18.4 µM and the TGI [36] was 7.08 µM. For the same compound, the TGI [37] was 23.2 µM, the TGI [57] was > 84.7 µM and the TGI [38] was 3.03 µM. It also gave a TGI [39] of 41.9 µM, a TGI [40] of 29.3 µM and a TGI [41] of 35.4 µM. The TGI [42] was 40.9 µM, the TGI [43] was 11.1 µM and the TGI [58] was 15.3 µM. It also gave a TGI [59] of 38.7 µM, a TGI [44] of 16.7 µM and a TGI [45] of 24 µM. For the same compound, the TGI [46] was 10.7 µM, the TGI [47] was 28.7 µM and the TGI [48] was 36 µM. The TGI [49] was 19 µM, the TGI [50] was 49.9 µM and the TGI [51] was 33 µM.
